Where two headings read alike, the source gives them in different places.
Assays:
[1] = test system: Staphylococcus aureus (S. aureus) 11540 strain; test: standard microdilution assay to determine minimum inhibitory concentrations (MICs), S. aureus; assay type: cell-based
Experimental: (§1) The in vitro activity of the compounds of the present disclosure can be determined. Antimicrobial testing is typically performed to determine the minimum inhibitory concentration (MIC). Minimum inhibitory concentrations (MICs) are determined by the microdilution method in a final volume of 100 μl according to protocols outlined by The Clinical and Laboratory Standards Institute (CLSI). Performance standards for reference strains are assessed within the same experimental design to maintain quality control. See, for example, Clinical Laboratory Standards Institute: Methods for dilution antimicrobial susceptibility tests for bacteria that grow aerobically M7-A8. Approved Standard-Eighth Edition. Wayne, PA: CLSI; December 2008: and Clinical Laboratory Standards Institute: Performance Standards for Antimicrobial Susceptibility Testing M100-S20; Approved Standard-Twentieth Edition. Wayne, PA: CLSI; June 2010. The compounds of the present disclosure were tested for antimicrobial activity. The Compounds 1-122 were run against Eschericia coli (E. coli) strain ATCC25922 and against Staphylococcus aureus (S. aureus) 11540 strain using a standard microdilution assay to determine minimum inhibitory concentrations (MICs). […] It will be recognized by one skilled in the art that the compounds can be assessed against other bacterial organisms and that the presentation of data for activity against Eschericia coli and Staphylococcus aureus are illustrative and in no way is intended to limit the scope of the present disclosure. The compounds of the present disclosure can be assayed against a range of other microorganisms depending upon the performance activity desired to be gathered. Furthermore, the “+” and “−” representation and the selection of a cutoff value of 16 micrograms/mL is also illustrative and in no way is intended to limit the scope of the present disclosure.

[2] = test system: Eschericia coli (E. coli) strain ATCC25922; test: standard microdilution assay to determine minimum inhibitory concentrations (MICs), E. coli; assay type: cell-based; details: Escherichia coli
Experimental: as §1

[3] = Rat infusion study: clinical signs and IV plasma pharmacokinetics across infusion lengths; assay type: in vivo; details: male Sprague-Dawley rats; for Clinical Signs: 4 mg/kg jugular venous infusion, listed as Compound No. 34, 4 mg/kg; for AUC(0-inf) / Cmax / half-life: male, Sprague-Dawley, rat, plasma, iv, 4 mg/kg, 4 mg/kg IV
Description: Many pyrrolocytosines, including Compound No. 34, share an acute clinical syndrome, which manifests in as a Cmax-driven hemodynamic effect and is associated with immediate clinical signs such as labored breathing. Cmax is the peak concentration a molecule reaches in the plasma, in this case directly following intravenous administration, and is expressed generally in micrograms/milliliter. The syndrome is dose-dependent, meaning that the higher the amount of drug given, the more severe the effects. This is generally considered the limiting toxicity for the effected compounds of this class. Importantly, the efficacy for the pyrrolocytosines, including Compound No. 34, is not driven by the Cmax but rather by the AUC (Area-Under-the-plasma-drug-concentration-time-Curve), which is an expression of the total body exposure to the drug and is expressed generally in micrograms*hour/milliliter. In rat studies with several pyrrolocytosines, including Compound No. 34, it has been shown that increasing the length, or duration, of the intravenous administration effectively modulates or eliminates the clinical syndrome, depresses the concentration maximum, results in a short distribution half-life but still affords drug exposures necessary for efficacy.
As an example, a study conducted by PharmOptima under study number 2017-164 with Compound No. 34, compared the clinical signs and plasma drug concentration data across several infusion lengths: 10-minutes, which is the screening length at which the acute syndrome is observed, 1-hour, 2-hour, 3-hour and 24-hour. A total of 15 male Sprague-Dawley rats (275-300 grams) were used in the study, divided evenly across the 5 dosing regimens. The route of drug administration was via jugular venous infusion, using a syringe infusion pump. Compound No. 34 was formulated in phosphate-buffered mannitol, with a starting pH=6.5.
There was a clear decrease in Cmax as infusion length was increased. The intermediate dosing groups still achieved significant AUC, or drug exposures for efficacy, and particularly with the 3 h infusion itis clear that the dose can be increased to move the AUC higher while not approaching the Cmax associated with the severe end of the acute tolerability. The 24 h infusion is particularly compelling. It indicates the concentration can be titrated to achieve steady-state drug levels for efficacy while remaining well below the Cmax associated with clinical signs. […] In the end, this translates into a generous therapeutic window.

SMILES | MIC [1] | MIC [2] | also measured
C[C@H](N)CCCc1cc(Cl)c(F)c(-c2cc3cn(-c4ccc([C@@H]5CCC[C@@H](CCSC(=N)N)N5)cc4)c(=O)nc3[nH]2)c1 [Compound 34] | ≤ 16 µg/mL | ≤ 16 µg/mL | Clinical Signs ([3]; 10-min infusion): significant labored breathing; Clinical Signs ([3]; 1 h, 2 h and 3 h infusion groups): minor signs of chewing and licking; Clinical Signs ([3]; 24 h infusion): no clinical signs and none; AUC(0-inf) ([3]; 10-min infusion): 22000 ng·h/mL; Cmax ([3]; 10-min infusion): 23600 ng/mL; AUC(0-inf) ([3]; 1 h infusion): 14400 ng·h/mL; Cmax ([3]; 1 h infusion): 8890 ng/mL; AUC(0-inf) ([3]; 2 h infusion): 14400 ng·h/mL; Cmax ([3]; 2 h infusion): 8120 ng/mL; AUC(0-inf) ([3]; 3 h infusion): 9150 ng·h/mL; Cmax ([3]; 3 h infusion): 3760 ng/mL; AUC(0-inf) ([3]; 24 h infusion): 11000 ng·h/mL; Cmax ([3]; 24 h infusion): 560 ng/mL; half-life ([3]; 10-min infusion, read-out: T½ (h)-alpha (converted)): 1.01 h; half-life ([3]; 1 h infusion, read-out: T½ (h)-alpha (converted)): 0.91 h; half-life ([3]; 2 h infusion, read-out: T½ (h)-alpha (converted)): 1.02 h; half-life ([3]; 3 h infusion, read-out: T½ (h)-alpha (converted)): 0.99 h; half-life ([3]; 24 h infusion, read-out: T½ (h)-alpha (converted)): 1.01 h; half-life ([3]; first of two cells, infusion group(s) unclear (grid: 10-min), read-out: T½ (h)-terminal (converted)): 15.2 h; half-life ([3]; second of two cells, infusion group(s) unclear (grid: 1 h), read-out: T½ (h)-terminal (converted)): 15.2 h
COCCN1[C@H](CCSC(=N)N)CCC[C@H]1c1ccc(-n2cc3cc(-c4cc(CCC[C@H](C)N)cc(Cl)c4F)[nH]c3nc2=O)cc1 [Compound 97] | ≤ 16 µg/mL | > 16 µg/mL | –
C[C@H](N)CCCc1cc(Cl)c(F)c(-c2cc3cn(-c4ccc([C@@H]5CCC[C@@H](CCSC(=N)N)N5CCF)cc4)c(=O)nc3[nH]2)c1 [Compound 98] | ≤ 16 µg/mL | ≤ 16 µg/mL | –
C[C@H](N)CCCc1cc(-c2cc3cn(-c4ccc([C@@H]5CCC[C@@H](CCSC(=N)N)N5)cc4)c(=O)nc3[nH]2)cc(C2CC2)c1 [Compound 99] | ≤ 16 µg/mL | ≤ 16 µg/mL | –
C[C@H](N)CCCc1cc(-c2cc3cn(-c4ccc([C@@H]5CCC[C@@H](CCSC(=N)N)N5)cc4)c(=O)nc3[nH]2)cc(C2CCCC2)c1 [Compound 100] | ≤ 16 µg/mL | ≤ 16 µg/mL | –
C[C@@H](CO)CN1[C@H](CCSC(=N)N)CCC[C@H]1c1ccc(-n2cc3cc(-c4cc(CCC[C@H](C)N)cc(Cl)c4F)[nH]c3nc2=O)cc1 [Compound 101] | ≤ 16 µg/mL | ≤ 16 µg/mL | –
C[C@H](N)CCCc1cc(Cl)c(F)c(-c2cc3cn(-c4ccc([C@@H]5CCC[C@@H](CCSC(=N)N)N5CCC5CCOCC5)cc4)c(=O)nc3[nH]2)c1 [Compound 102] | ≤ 16 µg/mL | ≤ 16 µg/mL | –
C[C@H](N)CCCc1cc(Cl)c(F)c(-c2cc3cn(-c4ccc([C@@H]5CCC[C@@H](CCSC(=N)N)N5CCC5CC5)cc4)c(=O)nc3[nH]2)c1 [Compound 103] | ≤ 16 µg/mL | ≤ 16 µg/mL | –
CCc1c(F)c(CCC[C@H](C)N)cc(-c2cc3cn(-c4ccc([C@@H]5CCC[C@@H](CCSC(=N)N)N5)cc4)c(=O)nc3[nH]2)c1F [Compound 104] | ≤ 16 µg/mL | ≤ 16 µg/mL | –
C[C@H](CO)CN1[C@H](CCSC(=N)N)CCC[C@H]1c1ccc(-n2cc3cc(-c4cc(CCC[C@H](C)N)cc(Cl)c4F)[nH]c3nc2=O)cc1 [Compound 105] | ≤ 16 µg/mL | ≤ 16 µg/mL | –
C[C@H](N)CCCc1cc(Cl)c(F)c(-c2cc3cn(-c4ccc([C@@H]5CCC(O)[C@@H](CCSC(=N)N)N5C)cc4)c(=O)nc3[nH]2)c1 (some centres unmarked) [Compound 106] | ≤ 16 µg/mL | ≤ 16 µg/mL | –
C[C@H](N)CCCc1cc(Cl)c(F)c(-c2cc3cn(-c4ccc([C@H]5C[C@H](CCSC(=N)N)CCN5C)cc4)c(=O)nc3[nH]2)c1 [Compound 111] | ≤ 16 µg/mL | ≤ 16 µg/mL | –
C[C@H](N)CCCc1cc(Cl)c(F)c(-c2cc3cn(-c4ccc([C@H]5C[C@H](CCSC(=N)N)CN5)cc4)c(=O)nc3[nH]2)c1 [Compound 114] | ≤ 16 µg/mL | ≤ 16 µg/mL | –
C[C@H](N)CCCc1cc(Cl)c(F)c(-c2cc3cn(-c4ccc([C@H]5C[C@H](CCSC(=N)N)C(=O)N5C)cc4)c(=O)nc3[nH]2)c1 [Compound 115] | ≤ 16 µg/mL | > 16 µg/mL | –
C[C@H](N)CCCc1cc(Cl)c(F)c(-c2cc3cn(-c4ccc([C@@H]5C[C@@H](CCSC(=N)N)CN5)cc4)c(=O)nc3[nH]2)c1 [Compound 116] | ≤ 16 µg/mL | ≤ 16 µg/mL | –
C[C@H](N)CCCc1cc(Cl)c(F)c(-c2cc3cn(-c4ccc([C@H]5C[C@H](CCSC(=N)N)CN5CCCF)cc4)c(=O)nc3[nH]2)c1 [Compound 117] | ≤ 16 µg/mL | ≤ 16 µg/mL | –
CCSC(=N)NCC[C@@H]1CCC[C@@H](c2ccc(-n3cc4cc(-c5cc(CCC[C@H](C)N)cc(Cl)c5F)[nH]c4nc3=O)cc2)N1 [Compound 118] | ≤ 16 µg/mL | ≤ 16 µg/mL | –
CC(C)SC(=N)NCC[C@@H]1CCC[C@@H](c2ccc(-n3cc4cc(-c5cc(CCC[C@H](C)N)cc(Cl)c5F)[nH]c4nc3=O)cc2)N1 [Compound 119] | ≤ 16 µg/mL | ≤ 16 µg/mL | –
CSC(=N)NCC[C@@H]1CCC[C@@H](c2ccc(-n3cc4cc(-c5cc(CCC[C@H](C)N)cc(Cl)c5F)[nH]c4nc3=O)cc2)N1 [Compound 120] | ≤ 16 µg/mL | ≤ 16 µg/mL | –
CSC(=N)NCC[C@@H]1CCC[C@@H](c2ccc(-n3cc4cc(-c5cc(CCC[C@H](C)N)cc(Cl)c5F)[nH]c4nc3=O)cc2F)N1 [Compound 121] | ≤ 16 µg/mL | ≤ 16 µg/mL | –
C=CCSC(=N)NCC[C@@H]1CCC[C@@H](c2ccc(-n3cc4cc(-c5cc(CCC[C@H](C)N)cc(Cl)c5F)[nH]c4nc3=O)cc2)N1 [Compound 122] | ≤ 16 µg/mL | ≤ 16 µg/mL | –

Reference: patent US12234238B2, “Antimicrobial compounds and methods of making and using the same” (BIOVERSYS AG, priority 2017, dated 2025)
